Test results published in ChEMBL document CHEMBL4828721, “Substituted dienes prepared from betulinic acid - Synthesis, cytotoxicity, mechanism of action, and pharmacological parameters” (Eur J Med Chem, 2021).

Tests used:
U2OS = experiment: Cytotoxicity against human U2OS cells assessed as reduction in cell viability measured after 72 hrs by MTS assay; format: functional, cell-based
CEM-DNR = experiment: Cytotoxicity against daunorubicin resistant human CEM-DNR cells assessed as reduction in cell viability measured after 72 hrs by MTS assay; format: functional, cell-based
BJ = experiment: Cytotoxicity against human BJ cells assessed as reduction in cell viability measured after 72 hrs by MTS assay; format: cell-based
HCT-116 = experiment: Cytotoxicity against human HCT-116 cells assessed as reduction in cell viability measured after 72 hrs by MTS assay; format: functional, cell-based; conditions: HCT-116, 72 h
MRC5 = experiment: Cytotoxicity against human MRC5 cells assessed as reduction in cell viability measured after 72 hrs by MTS assay; format: cell-based; conditions: MRC5, 72 h
CCRF-CEM = experiment: Cytotoxicity against human CCRF-CEM cells assessed as reduction in cell viability measured after 72 hrs by MTS assay; format: functional, cell-based
K562 = experiment: Cytotoxicity against human K562 cells assessed as reduction in cell viability measured after 72 hrs by MTS assay; format: functional, cell-based; conditions: K562, 72 h
A549 = experiment: Cytotoxicity against human A549 cells assessed as reduction in cell viability measured after 72 hrs by MTS assay; format: functional, cell-based; conditions: A549, 72 h
[1] = Cytotoxicity against paclitaxel resistant human K562-Tax cells assessed as reduction in cell viability measured after 72 hrs by MTS assay; format: functional, cell-based
[2] = Cytotoxicity against human HCT116 p53-null cells assessed as reduction in cell viability measured after 72 hrs by MTS assay; format: functional, cell-based

Structure (SMILES) | IC50 (U2OS) | IC50 (CEM-DNR) | IC50 (BJ) | IC50 (HCT-116) | IC50 (MRC5) | IC50 (CCRF-CEM) | IC50 (K562) | IC50 (A549) | IC50 [1] | IC50 [2]
C=C(/C=C/c1ccncc1)[C@@H]1CC[C@]2(C(=O)O)CC[C@]3(C)[C@H](CC[C@@H]4[C@@]5(C)CC[C@H](O)C(C)(C)[C@@H]5CC[C@]43C)[C@@H]12 | 29.7 µM | 20.5 µM | > 50 µM | 35 µM | > 50 µM | 5.9 µM | 43.4 µM | 46 µM | 20.6 µM | 30.6 µM
C=C(/C=C/c1cccc(C(F)(F)F)c1)[C@@H]1CC[C@]2(C(=O)O)CC[C@]3(C)[C@H](CC[C@@H]4[C@@]5(C)CC[C@H](O)C(C)(C)[C@@H]5CC[C@]43C)[C@@H]12 | 24.6 µM | 28.1 µM | > 50 µM | 23.1 µM | 42.9 µM | 8 µM | 26.5 µM | 35.1 µM | 25.1 µM | 24.8 µM
C=C(/C=C/c1ccccc1C(F)(F)F)[C@@H]1CC[C@]2(C(=O)O)CC[C@]3(C)[C@H](CC[C@@H]4[C@@]5(C)CC[C@H](O)C(C)(C)[C@@H]5CC[C@]43C)[C@@H]12 | 29.6 µM | > 50 µM | > 50 µM | 33 µM | > 50 µM | 21.8 µM | 48.7 µM | 37 µM | > 50 µM | 36.1 µM
C=C(/C=C/c1ccccc1)[C@@H]1CC[C@]2(C(=O)O)CC[C@]3(C)[C@H](CC[C@@H]4[C@@]5(C)CC[C@H](O)C(C)(C)[C@@H]5CC[C@]43C)[C@@H]12 | 24.2 µM | 30.2 µM | > 50 µM | 35.5 µM | > 50 µM | 6.5 µM | 40 µM | 41.8 µM | 25.3 µM | 39.5 µM
C=C(/C=C/c1cccc(C(=O)O)c1)[C@@H]1CC[C@]2(C(=O)O)CC[C@]3(C)[C@H](CC[C@@H]4[C@@]5(C)CC[C@H](O)C(C)(C)[C@@H]5CC[C@]43C)[C@@H]12 | > 50 µM | 33.9 µM | > 50 µM | 43.4 µM | > 50 µM | 20.1 µM | > 50 µM | > 50 µM | 36.7 µM | 43.1 µM
C=C(/C=C/c1c(F)c(F)c(F)c(F)c1F)[C@@H]1CC[C@]2(C(=O)O)CC[C@]3(C)[C@H](CC[C@@H]4[C@@]5(C)CC[C@H](O)C(C)(C)[C@@H]5CC[C@]43C)[C@@H]12 | 30.2 µM | > 50 µM | > 50 µM | 32.2 µM | 43.2 µM | 22.1 µM | 29.8 µM | 32.2 µM | > 50 µM | 36.3 µM
C=C(/C=C/c1cccc(I)c1)[C@@H]1CC[C@]2(C(=O)O)CC[C@]3(C)[C@H](CC[C@@H]4[C@@]5(C)CC[C@H](O)C(C)(C)[C@@H]5CC[C@]43C)[C@@H]12 | 28.4 µM | > 50 µM | > 50 µM | 27.3 µM | > 50 µM | 11.6 µM | 25.2 µM | 38.7 µM | 48.4 µM | 29.5 µM
C=C(/C=C/C1CCCCC1)[C@@H]1CC[C@]2(C(=O)O)CC[C@]3(C)[C@H](CC[C@@H]4[C@@]5(C)CC[C@H](O)C(C)(C)[C@@H]5CC[C@]43C)[C@@H]12 | > 50 µM | 45.7 µM | > 50 µM | 15.2 µM | > 50 µM | 8 µM | > 50 µM | > 50 µM | 43.6 µM | > 50 µM
C=C(/C=C/c1ccccc1I)[C@@H]1CC[C@]2(C(=O)O)CC[C@]3(C)[C@H](CC[C@@H]4[C@@]5(C)CC[C@H](O)C(C)(C)[C@@H]5CC[C@]43C)[C@@H]12 | 28.5 µM | > 50 µM | > 50 µM | 29.6 µM | 29.5 µM | 20.6 µM | 25.1 µM | 29.7 µM | > 50 µM | 29.5 µM
C=C(/C=C/c1ccc(C(=O)O)cc1)[C@@H]1CC[C@]2(C(=O)O)CC[C@]3(C)[C@H](CC[C@@H]4[C@@]5(C)CC[C@H](O)C(C)(C)[C@@H]5CC[C@]43C)[C@@H]12 | 49 µM | 32 µM | > 50 µM | 39 µM | > 50 µM | 17.5 µM | > 50 µM | > 50 µM | 39.2 µM | 42.5 µM
C=C(/C=C/c1cc(OC)cc(OC)c1)[C@@H]1CC[C@]2(C(=O)O)CC[C@]3(C)[C@H](CC[C@@H]4[C@@]5(C)CC[C@H](O)C(C)(C)[C@@H]5CC[C@]43C)[C@@H]12 | 22.3 µM | 13.7 µM | 47.6 µM | 17.3 µM | 29.2 µM | 10 µM | 22.2 µM | 19 µM | 16 µM | 20.8 µM
C=C(/C=C/c1ccc(F)cc1)[C@@H]1CC[C@]2(C(=O)O)CC[C@]3(C)[C@H](CC[C@@H]4[C@@]5(C)CC[C@H](O)C(C)(C)[C@@H]5CC[C@]43C)[C@@H]12 | 23.9 µM | 31.4 µM | 44.6 µM | 35.4 µM | 38.3 µM | 4.9 µM | 36.2 µM | 40.6 µM | 29.8 µM | 41 µM
C=C(/C=C/c1ccccc1C#N)[C@@H]1CC[C@]2(C(=O)O)CC[C@]3(C)[C@H](CC[C@@H]4[C@@]5(C)CC[C@H](O)C(C)(C)[C@@H]5CC[C@]43C)[C@@H]12 | 40.4 µM | 26.8 µM | > 50 µM | 36.6 µM | > 50 µM | 23.2 µM | > 50 µM | > 50 µM | 24.8 µM | 47 µM
C=C(/C=C/c1ccc(C(F)(F)F)cc1)[C@@H]1CC[C@]2(C(=O)O)CC[C@]3(C)[C@H](CC[C@@H]4[C@@]5(C)CC[C@H](O)C(C)(C)[C@@H]5CC[C@]43C)[C@@H]12 | 28.2 µM | 40.9 µM | 49.5 µM | 40.9 µM | 42.4 µM | 21.5 µM | 40.5 µM | 41.4 µM | 45.6 µM | 31.9 µM
C=C(/C=C/c1cccc(C)c1)[C@@H]1CC[C@]2(C(=O)O)CC[C@]3(C)[C@H](CC[C@@H]4[C@@]5(C)CC[C@H](O)C(C)(C)[C@@H]5CC[C@]43C)[C@@H]12 | 18.2 µM | 21.4 µM | > 50 µM | 24.7 µM | 42.2 µM | 9.5 µM | 24.9 µM | 36.5 µM | 23.6 µM | 22.3 µM
C=C(/C=C/c1cccc(Br)c1)[C@@H]1CC[C@]2(C(=O)O)CC[C@]3(C)[C@H](CC[C@@H]4[C@@]5(C)CC[C@H](O)C(C)(C)[C@@H]5CC[C@]43C)[C@@H]12 | 27.6 µM | 35.9 µM | > 50 µM | 25.3 µM | > 50 µM | 8.8 µM | 23.6 µM | 33.1 µM | 32.8 µM | 26.8 µM
C=C(/C=C/c1ccc2ccccc2c1)[C@@H]1CC[C@]2(C(=O)O)CC[C@]3(C)[C@H](CC[C@@H]4[C@@]5(C)CC[C@H](O)C(C)(C)[C@@H]5CC[C@]43C)[C@@H]12 | 27.2 µM | 47 µM | > 50 µM | 30.2 µM | 43.1 µM | 11.8 µM | > 50 µM | 32.9 µM | 45.8 µM | 26.3 µM
C=C(/C=C/c1ccc(Cl)cc1)[C@@H]1CC[C@]2(C(=O)O)CC[C@]3(C)[C@H](CC[C@@H]4[C@@]5(C)CC[C@H](O)C(C)(C)[C@@H]5CC[C@]43C)[C@@H]12 | 25.8 µM | 33.1 µM | > 50 µM | 39.5 µM | > 50 µM | 5.4 µM | 46.3 µM | 45.4 µM | 29.2 µM | 38.5 µM
